PMC4436593, “Endoplasmic reticulum stress-independent activation of unfolded protein response kinases by a small molecule ATP-mimic” (eLife, 2015)

System: mouse embryonic fibroblast (MEFs) cells
Experiment: XBP1 mRNA splicing, PERK shift and eIF2α phosphorylation in WT, Ire1−/− and Perk−/− MEFs
Assay type: cell-based
Conditions: IPA 1 µM, 4 hr
Text: PERK activation by IPA could be due to direct binding of IPA to PERK, or it could be caused by indirect activation of PERK by IRE1. If the latter were true, IPA should not trigger PERK activation in the absence of IRE1. To test this notion, we treated mouse embryonic fibroblasts (MEFs) derived from Ire1α^−/− and Perk^−/− knock-out mice with IPA and monitored XBP1 mRNA splicing, and PERK and eIF2α phosphorylation.
Cells were lysed and total RNA was collected (Total RNA Kit 1, EZ-RNA, EZNA [USA]). PolyA^+ mRNA was reverse transcribed with M-MLV (Invitrogen), and the resulting cDNA was used as a template for PCR amplification across the fragment of XBP1 cDNA containing the intron. Primers used to amplify human XBP1: 5′-[…]-3′ and 5′-[…]-3′. To amplify murine XBP1: 5′-[…]-3′ and 5′-[…]-3′. PCR conditions were as follows: 95°C for 5 min, 95°C for 1 min, 58°C for 30 s, 72°C for 30 s, and 72°C for 5 min, with 20 cycles of amplification. PCR products were resolved on a 2.5% agarose tris-acetate EDTA (TAE) gel. As previously reported, a hybrid amplicon species consisting of unspliced Xbp-1 annealed to spliced Xbp-1 can also be produced through this PCR reaction and was visible as a slower migrating band above the unspliced amplicon. The same cDNA was used as template for PCR of DERLIN-3 and HERPUD1, both ATF6 targets, and GAPDH, which was used as loading control. Primers used included the following: DERLIN-3, 5′-[…]-3′ and 5′-[…]-3′; HERPUD1-1, 5′-[…]-3′ and 5′-[…]-3′; GAPDH, 5′-[…]-3′ and 5′-[…]-3′. PCR conditions were: 95°C × 5 min, 95°C × 1 min, 56°C × 30 s, 72°C for 30 s for 25 cycles, 72°C for 5 min at 4°C. PCR products were resolved on a 2% agarose TAE gel.
Cells were lysed in 50 mM Tris-HCl, 2% SDS, 10% glycerol, 0.01% bromophenol blue, pH 6.8 supplemented with phosphatase inhibitors (Sigma) and protease inhibitors (Roche). 30 μg to 50 μg of total protein was loaded on each lane of 8% or 10% SDS-PAGE gels. The separated proteins were then transferred onto nitrocellulose membranes for immunoblotting. The following antibodies and dilutions were used: anti-β-actin 1:10,000 (A5441, Sigma), anti-total PERK at 1:1000 (C33E10, Cell Signaling Technology), anti-phospho eIF2α at 1:1000 (3597S, Cell Signaling Technology), anti-total eIF2α at 1:1000 (L57A5, Cell Signaling Technology). After overnight incubation with primary antibody, membranes were washed in PBS with 0.05% Tween and incubated in HRP-coupled secondary antibody anti-rabbit (611–1302, Rockland) or anti-mouse (610–1302, Rockland) diluted at 1:5000 in wash buffer. Immunoreactive bands were detected by chemiluminescence.

CSc1ccc(NC(=O)Nc2ccc(Nc3nccc(Nc4cc(C5CC5)[nH]n4)n3)cc2)cc1 [IPA]
PERK phosphorylation and eIF2α phosphorylation in Ire1α−/− MEFs (Ire1α−/− MEFs): pronounced PERK phosphorylation
XBP1 mRNA splicing in Ire1α−/− MEFs (Ire1α−/− MEFs): no IPA-induced XBP1 mRNA splicing
eIF2α phosphorylation in Perk−/− MEFs (Perk−/− MEFs): only a trace amount of IPA-induced eIF2α phosphorylation
UPR branch activation in wild-type MEFs (WT MEFs): induced both the PERK and IRE1 branches of the UPR
